# Active and inactive are the calls of the source. The rule behind the calls is not given here.
# Key:
# [1] = target: T1, Tyrosine-protein phosphatase non-receptor type 11 (Homo sapiens, UniProt Q06124); assay: Inhibition of SHP2 (unknown origin) using 3-o-methylfluorescein phosphate as substrate by fluorescence assay
# T1 sequence (Q06124 whole entry): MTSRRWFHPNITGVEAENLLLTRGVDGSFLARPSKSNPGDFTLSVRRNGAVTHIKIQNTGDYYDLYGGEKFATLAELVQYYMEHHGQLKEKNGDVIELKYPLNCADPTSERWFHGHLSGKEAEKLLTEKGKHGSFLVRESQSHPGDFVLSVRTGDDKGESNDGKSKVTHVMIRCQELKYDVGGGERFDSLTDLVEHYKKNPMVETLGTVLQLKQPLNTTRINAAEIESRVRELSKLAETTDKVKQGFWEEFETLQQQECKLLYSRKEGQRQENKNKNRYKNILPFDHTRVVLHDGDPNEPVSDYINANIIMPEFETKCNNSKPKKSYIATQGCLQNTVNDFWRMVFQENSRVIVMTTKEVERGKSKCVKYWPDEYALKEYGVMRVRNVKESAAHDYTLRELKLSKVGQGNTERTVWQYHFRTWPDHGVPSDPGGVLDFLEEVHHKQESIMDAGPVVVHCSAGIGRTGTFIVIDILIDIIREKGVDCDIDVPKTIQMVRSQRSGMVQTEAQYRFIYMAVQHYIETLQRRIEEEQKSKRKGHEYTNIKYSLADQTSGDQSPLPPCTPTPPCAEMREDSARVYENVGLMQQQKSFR
# [2] = target: T2, Tyrosine-protein phosphatase non-receptor type 1 (Homo sapiens, UniProt P18031); assay: Inhibition of GST-tagged PTP1B (unknown origin) using pNPP as substrate measured for 3 mins by colorimetric assay
# T2 sequence (P18031 whole entry): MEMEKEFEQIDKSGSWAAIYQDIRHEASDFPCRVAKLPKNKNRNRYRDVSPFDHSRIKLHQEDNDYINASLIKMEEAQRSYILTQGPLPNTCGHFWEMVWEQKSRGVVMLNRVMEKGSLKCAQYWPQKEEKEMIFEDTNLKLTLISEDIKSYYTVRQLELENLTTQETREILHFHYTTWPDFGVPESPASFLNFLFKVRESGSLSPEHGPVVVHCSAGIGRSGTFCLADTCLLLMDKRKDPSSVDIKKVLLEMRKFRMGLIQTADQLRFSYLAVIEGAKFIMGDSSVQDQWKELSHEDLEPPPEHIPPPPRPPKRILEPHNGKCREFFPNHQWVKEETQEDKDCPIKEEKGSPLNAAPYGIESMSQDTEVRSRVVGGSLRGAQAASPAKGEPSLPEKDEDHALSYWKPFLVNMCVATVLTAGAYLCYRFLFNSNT
# [3] = target: T3, Tyrosine-protein phosphatase non-receptor type 11 (Homo sapiens) (UniProt Q06124); assay: Inhibition of SHP2 (unknown origin) at 20 ug/ml using 3-o-methylfluorescein phosphate as substrate by fluorescence assay relative to control
# T3 sequence (whole entry): T1 sequence (Q06124 whole entry)
# [4] = organism: Homo sapiens; assay: Selectivity index, ratio of IC50 for SHP1 (unknown origin) to IC50 for SHP2 (unknown origin)
# [5] = target: T4, Tyrosine-protein phosphatase non-receptor type 1 (Homo sapiens) (UniProt P18031); assay: Inhibition of GST-tagged PTP1B (unknown origin) at 20 ug/ml using pNPP as substrate measured for 3 mins by colorimetric assay relative to control
# T4 sequence (whole entry): T2 sequence (P18031 whole entry)
# [6] = target: T5, Tyrosine-protein phosphatase non-receptor type 2 (Homo sapiens, UniProt P17706); assay: Inhibition of GST-tagged TCPTP (unknown origin) using pNPP as substrate measured for 3 mins by colorimetric assay
# T5 sequence (P17706 whole entry): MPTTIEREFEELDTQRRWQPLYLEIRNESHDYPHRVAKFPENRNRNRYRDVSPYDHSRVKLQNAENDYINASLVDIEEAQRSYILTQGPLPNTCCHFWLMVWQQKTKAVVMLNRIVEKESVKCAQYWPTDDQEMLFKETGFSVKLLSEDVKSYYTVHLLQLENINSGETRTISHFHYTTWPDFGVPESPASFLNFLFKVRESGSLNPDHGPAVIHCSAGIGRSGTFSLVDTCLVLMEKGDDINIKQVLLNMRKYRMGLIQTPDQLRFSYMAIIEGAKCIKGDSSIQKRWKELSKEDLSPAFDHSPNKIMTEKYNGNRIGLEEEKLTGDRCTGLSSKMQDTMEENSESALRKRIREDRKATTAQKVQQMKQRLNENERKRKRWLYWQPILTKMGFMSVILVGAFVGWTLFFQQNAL
# [7] = organism: Homo sapiens; assay: Selectivity index, ratio of IC50 for SHP2 (unknown origin) to IC50 for GST-tagged TCPTP (unknown origin)
# [8] = target: T3, Tyrosine-protein phosphatase non-receptor type 11 (Homo sapiens); assay: Reversible inhibition of SHP2 (unknown origin) using DiFMUP as substrate by enzyme kinetics based dialysis assay
# [9] = target: T3, Tyrosine-protein phosphatase non-receptor type 11 (Homo sapiens); assay: Fast binding inhibition of SHP2 (unknown origin) using DiFMUP as substrate by enzyme kinetics assay
# [10] = target: T3, Tyrosine-protein phosphatase non-receptor type 11 (Homo sapiens); assay: Competitive inhibition of SHP2 (unknown origin) assessed as increase in Km with constant Vmax using DiFMUP as substrate by Lineweaver-Burk plot analysis
# [11] = target: Tyrosine-protein phosphatase non-receptor type 6 (Homo sapiens) (UniProt P29350); assay: Inhibition of SHP1 (unknown origin) at 20 ug/ml using 3-o-methylfluorescein phosphate as substrate by fluorescence assay relative to control
# Sequence of Tyrosine-protein phosphatase non-receptor type 6 (Homo sapiens) (P29350 whole entry): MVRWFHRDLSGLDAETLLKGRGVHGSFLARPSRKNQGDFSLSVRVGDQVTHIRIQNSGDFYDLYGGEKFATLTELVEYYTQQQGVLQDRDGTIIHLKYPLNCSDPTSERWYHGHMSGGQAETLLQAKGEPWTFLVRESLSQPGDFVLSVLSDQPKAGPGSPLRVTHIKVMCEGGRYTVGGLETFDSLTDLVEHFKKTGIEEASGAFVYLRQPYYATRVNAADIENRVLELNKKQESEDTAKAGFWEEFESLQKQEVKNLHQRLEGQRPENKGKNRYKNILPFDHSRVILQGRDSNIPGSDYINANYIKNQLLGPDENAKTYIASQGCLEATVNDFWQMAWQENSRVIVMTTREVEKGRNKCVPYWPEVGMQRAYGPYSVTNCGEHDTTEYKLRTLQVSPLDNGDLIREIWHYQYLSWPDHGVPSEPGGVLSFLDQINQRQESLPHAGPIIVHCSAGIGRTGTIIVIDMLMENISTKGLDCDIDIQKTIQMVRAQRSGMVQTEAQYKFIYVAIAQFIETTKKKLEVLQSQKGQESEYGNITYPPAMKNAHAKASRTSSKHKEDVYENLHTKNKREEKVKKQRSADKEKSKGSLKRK
Compound,IC50 [1],IC50 [2],inhibition [3],other results
O=C(Nc1ccc(F)cc1)c1ccc(-c2ccc(C(=O)Nc3ccc(F)cc3)[nH]2)cc1,20.3 µM,28.3 µM,–,–
O=C(Nc1ccc(F)cc1)c1ccc(-c2ccc(C(=O)Nc3ccc(F)cc3)o2)cc1,–,10.5 µM,< 50%,–
O=C(Nc1ccccc1)c1ccc(-c2ccc(C(=O)Nc3ccccc3)o2)cc1,4.63 µM,3.48 µM,–,–
O=C(Nc1ccccc1)c1ccc(-c2ccc(C(=O)Nc3ccccc3)[nH]2)cc1,–,23.4 µM,< 50%,–
SODIUM ORTHOVANAD,–,–,–,Ratio IC50 [4]: 1.92
O=C(NC1CCCCC1)c1ccc(-c2ccc(C(=O)NC3CCCCC3)s2)cc1,10.7 µM,4.88 µM,–,–
O=C(Nc1ccc(Cl)cc1)c1ccc(-c2ccc(C(=O)Nc3ccc(Cl)cc3)o2)cc1,–,15.7 µM,< 50%,–
O=C(Nc1ccc(F)cc1)c1ccc(-c2ncc(C(=O)Nc3ccc(F)cc3)s2)cc1,4.63 µM,–,–,inhibition [5]: < 50%
O=C(Nc1ccccc1)c1ccc(-c2ncc(C(=O)Nc3ccccc3)s2)cc1,–,7.94 µM,< 50%,–
O=C(Nc1ccc(F)cc1)c1ccc(-c2ccc(C(=O)Nc3ccc(F)cc3)s2)cc1,2.63 µM,–,–,IC50 [6]: 9.16 µM; Ratio IC50 [7]: 4; inhibition [5]: < 50%; inhibition [8]: Active; inhibition [9]: Active; inhibition [10]: Active; inhibition [11]: < 50%; Ratio IC50 [4]: > 43.8
O=C(Nc1ccccc1)c1ccc(-c2ccc(C(=O)Nc3ccccc3)s2)cc1,5.75 µM,3.52 µM,–,–
O=C(NC1CCCCC1)c1ccc(-c2ccc(C(=O)NC3CCCCC3)o2)cc1,–,–,< 50%,inhibition [5]: < 50%

# Reference: ChEMBL document CHEMBL4619739, “Synthesis and biological evaluation of heterocyclic bis-aryl amides as novel Src homology 2 domain containing protein tyrosine phosphatase-2 (SHP2) inhibitors” (Bioorg Med Chem Lett, 2020)
